Data as given in paper PMC5424327, “Boosting LPMO-driven lignocellulose degradation by polyphenol oxidase-activated lignin building blocks” (Biotechnology for Biofuels, 2017).

Target: T1, MtPPO7 (Thermothelomyces thermophilus, UniProt A0A1C9CXH9)
T1 construct: secreted enzyme over-expressed in homologous M. thermophila C1 (low protease/low (hemi-)cellulase strain), fractionated from culture broth; KX772412 is printed as 'UniProt' but has GenBank format
T1 sequence (A0A1C9CXH9 19-420): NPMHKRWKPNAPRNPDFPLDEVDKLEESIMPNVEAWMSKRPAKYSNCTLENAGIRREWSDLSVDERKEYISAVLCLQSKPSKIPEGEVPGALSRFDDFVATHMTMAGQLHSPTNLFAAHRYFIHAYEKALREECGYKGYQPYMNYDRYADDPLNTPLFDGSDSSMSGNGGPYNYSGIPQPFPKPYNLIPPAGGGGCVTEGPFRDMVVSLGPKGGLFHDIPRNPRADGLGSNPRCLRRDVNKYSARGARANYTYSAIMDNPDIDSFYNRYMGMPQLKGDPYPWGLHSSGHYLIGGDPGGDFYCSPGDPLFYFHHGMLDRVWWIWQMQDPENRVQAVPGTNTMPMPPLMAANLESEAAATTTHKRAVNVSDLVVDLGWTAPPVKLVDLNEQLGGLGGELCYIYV
Experiment: UHPLC-UV-MSn of substrate conversion
Format: biochemical
Settings: 2 mM substrate, 5.0 ug/mL enzyme, 50 mM potassium phosphate pH 6.0, 2.5 uM CuCl2, 50 °C, 24 h; ortho-hydroxylation

## COc1ccccc1O [compound 9, Guaiacol]
  conversion (%): The conversion of guaiacol by MtPPO7 resulted in the initial formation of 3-methoxycatechol
